Values quoted from earlier work as cited in patent US20090012085A1, “DOSAGE FORMS AND METHODS OF TREATMENT USING A TYROSINE KINASE INHIBITOR” (priority 2005, published 2009).

Tested on: solid and hematopoietic cancer xenograft models
Settings: diverse preclinical solid and hematopoietic cancer xenograft models; cited from earlier work

SMILES: Cc1[nH]c(/C=C2\C(=O)Nc3ccc(F)cc32)c(C)c1C(=O)NC[C@H](O)CN1CCOCC1 [compound 1, 5-[(Z)-(5-fluoro-2-oxo-1,2-dihydro-3H-indol-3-ylidene)methyl]-N-[(2S)-2-hydroxy-3-morpholin-4-ylpropyl]-2,4-dimethyl-1H-pyrrole-3-carboxamide]
- anti-tumor activity: has anti-tumor activity
